The record followed here is ChEMBL document CHEMBL2385001, “Synthesis and evaluation of 7-chloro-4-(piperazin-1-yl)quinoline-sulfonamide as hybrid antiprotozoal agents” (Bioorg Med Chem, 2013).

System in one data set: not listed separately
The data set is described as follows: Safety index, ratio of cytotoxicity against human HT-29 cells to antimalarial activity against chloroquine-resistant Plasmodium falciparum FCR-3. The conditions noted are these: read-out: Selectivity Index. Format: toxicity, cell-based.
Take `O=[N+]([O-])c1ccccc1S(=O)(=O)N1CCN(c2ccnc3cc(Cl)ccc23)CC1`: the selectivity ratio was 44.

In the case of `CCCS(=O)(=O)N1CCN(c2ccnc3cc(Cl)ccc23)CC1`, the selectivity ratio was 39.

As to `CC(=O)Nc1ccc(S(=O)(=O)N2CCN(c3ccnc4cc(Cl)ccc34)CC2)cc1`, the selectivity ratio turned out to be 84.

System in a further data set: not listed separately
Briefly: Cytotoxicity against human HT-29 cells assessed as growth inhibition at 100 uM after 48 hrs by MTT assay relative to control. It is filed as cell-based. The conditions noted are these: read-out: GI. In general terms: Tetrazolium dyes change colour on reduction, which living cells bring about.
Regarding `O=S(=O)(c1ccccc1)N1CCN(c2ccnc3cc(Cl)ccc23)CC1`, the inhibition at 48 h, 100 µM is 45%.

Consider `O=[N+]([O-])c1ccccc1S(=O)(=O)N1CCN(c2ccnc3cc(Cl)ccc23)CC1`, for which the inhibition at 48 h, 100 µM stood at 17%.

Take `CCCS(=O)(=O)N1CCN(c2ccnc3cc(Cl)ccc23)CC1`: the inhibition at 48 h, 100 µM amounted to 17%.

For the molecule `CC(=O)Nc1ccc(S(=O)(=O)N2CCN(c3ccnc4cc(Cl)ccc34)CC2)cc1`, the inhibition at 48 h, 100 µM was 17%.

In the case of `CC[C@@]1(O)C(=O)OCc2c1cc1n(c2=O)Cc2cc3ccccc3nc2-1` [CAMPTOTHECIN], the inhibition at 48 h, 100 µM came to 52%.

System in a further data set: not listed separately
The data set is described as follows: Cytotoxicity against human HT-29 cells assessed as cell viability at 100 uM after 48 hrs by MTT assay relative to control. Format: cell-based. To be noted: read-out: Activity.
For the molecule `O=S(=O)(c1ccccc1)N1CCN(c2ccnc3cc(Cl)ccc23)CC1`, the viability at 48 h, 100 µM amounted to 55.1%.

As to `Cc1ccc(S(=O)(=O)N2CCN(c3ccnc4cc(Cl)ccc34)CC2)cc1`, the viability at 48 h, 100 µM worked out at 64.5%.

For the molecule `CS(=O)(=O)N1CCN(c2ccnc3cc(Cl)ccc23)CC1`, the viability at 48 h, 100 µM came to 73%.

Take `O=S(=O)(c1ccc(Cl)cc1)N1CCN(c2ccnc3cc(Cl)ccc23)CC1`: the viability at 48 h, 100 µM is 61.3%.

On to `O=S(=O)(c1cc(Cl)ccc1Cl)N1CCN(c2ccnc3cc(Cl)ccc23)CC1`, for which the viability at 48 h, 100 µM came out at 63.4%.

Consider `O=S(=O)(c1ccc2ccccc2c1)N1CCN(c2ccnc3cc(Cl)ccc23)CC1`, for which the viability at 48 h, 100 µM is 59.8%.

On to `CC(C)(C)c1ccc(S(=O)(=O)N2CCN(c3ccnc4cc(Cl)ccc34)CC2)cc1`, for which the viability at 48 h, 100 µM came out at 67.7%.

With `COc1ccc(S(=O)(=O)N2CCN(c3ccnc4cc(Cl)ccc34)CC2)cc1`, the viability at 48 h, 100 µM was 68.1%.

As to `O=[N+]([O-])c1ccccc1S(=O)(=O)N1CCN(c2ccnc3cc(Cl)ccc23)CC1`, the viability at 48 h, 100 µM turned out to be 86.1%.

For `CCCS(=O)(=O)N1CCN(c2ccnc3cc(Cl)ccc23)CC1`, the viability at 48 h, 100 µM turned out to be 67.1%.

Turning to `CC(=O)Nc1ccc(S(=O)(=O)N2CCN(c3ccnc4cc(Cl)ccc34)CC2)cc1`, the viability at 48 h, 100 µM stood at 96.8%.

For `CC[C@@]1(O)C(=O)OCc2c1cc1n(c2=O)Cc2cc3ccccc3nc2-1` [CAMPTOTHECIN], the viability at 48 h, 100 µM came out at 48.3%.

System in the next data set: not listed separately
The data set is described as follows: Inhibition of beta-haematin formation after 24 hrs by microtiter plate assay. Format: functional.
Details: not given
As a reminder, the IC50 is the concentration at which inhibition is half-maximal. Regarding `O=S(=O)(c1ccccc1)N1CCN(c2ccnc3cc(Cl)ccc23)CC1`, inhibition was half-maximal at 18.1 µM (IC50).

`Cc1ccc(S(=O)(=O)N2CCN(c3ccnc4cc(Cl)ccc34)CC2)cc1` came in with a half-inhibitory concentration (IC50) of 8.92 µM.

On to `CS(=O)(=O)N1CCN(c2ccnc3cc(Cl)ccc23)CC1`, for which it took 13.5 µM to reach half-maximal inhibition (IC50).

Regarding `O=S(=O)(c1ccc(Cl)cc1)N1CCN(c2ccnc3cc(Cl)ccc23)CC1`, the IC50 came to 34.8 µM.

Turning to `O=S(=O)(c1cc(Cl)ccc1Cl)N1CCN(c2ccnc3cc(Cl)ccc23)CC1`, 47.2 µM corresponded to half-maximal inhibition (IC50).

The molecule `O=S(=O)(c1ccc2ccccc2c1)N1CCN(c2ccnc3cc(Cl)ccc23)CC1` gave a 50% inhibitory concentration (IC50) of 71.2 µM.

Consider `CC(C)(C)c1ccc(S(=O)(=O)N2CCN(c3ccnc4cc(Cl)ccc34)CC2)cc1`, for which the IC50 was found to be 72.4 µM.

On to `COc1ccc(S(=O)(=O)N2CCN(c3ccnc4cc(Cl)ccc34)CC2)cc1`, for which 9.04 µM corresponded to half-maximal inhibition (IC50).

Molecule `O=[N+]([O-])c1ccccc1S(=O)(=O)N1CCN(c2ccnc3cc(Cl)ccc23)CC1` had an IC50 of 63.5 µM.

For `CCCS(=O)(=O)N1CCN(c2ccnc3cc(Cl)ccc23)CC1`, 1.79 µM corresponded to half-maximal inhibition (IC50).

Turning to `CC(=O)Nc1ccc(S(=O)(=O)N2CCN(c3ccnc4cc(Cl)ccc34)CC2)cc1`, the IC50 turned out to be 8.84 µM.

As for `C=C[C@H]1CN2CC[C@H]1C[C@H]2[C@H](O)c1ccnc2ccc(OC)cc12` [QUININE], the IC50 amounted to 22.1 µM.

System in the next data set: not listed separately
Briefly: Hemolytic activity in human RBC at 100 uM after 48 hrs relative to control. It is filed as ADME, cell-based, Erythrocyte. To be noted: red blood cells, read-out: Activity.
`O=S(=O)(c1ccccc1)N1CCN(c2ccnc3cc(Cl)ccc23)CC1`: the hemolysis at 48 h, 100 µM amounted to 0.01%.

Take `Cc1ccc(S(=O)(=O)N2CCN(c3ccnc4cc(Cl)ccc34)CC2)cc1`: the hemolysis at 48 h, 100 µM is 0.62%.

For `CS(=O)(=O)N1CCN(c2ccnc3cc(Cl)ccc23)CC1`, the hemolysis at 48 h, 100 µM was found to be 0.01%.

For the molecule `O=S(=O)(c1ccc(Cl)cc1)N1CCN(c2ccnc3cc(Cl)ccc23)CC1`, the hemolysis at 48 h, 100 µM was 1.4%.

Regarding `O=S(=O)(c1cc(Cl)ccc1Cl)N1CCN(c2ccnc3cc(Cl)ccc23)CC1`, the hemolysis at 48 h, 100 µM was found to be 2.06%.

For `O=S(=O)(c1ccc2ccccc2c1)N1CCN(c2ccnc3cc(Cl)ccc23)CC1`, the hemolysis at 48 h, 100 µM was found to be 0.97%.

On to `CC(C)(C)c1ccc(S(=O)(=O)N2CCN(c3ccnc4cc(Cl)ccc34)CC2)cc1`, for which the hemolysis at 48 h, 100 µM was 1.36%.

Take `COc1ccc(S(=O)(=O)N2CCN(c3ccnc4cc(Cl)ccc34)CC2)cc1`: the hemolysis at 48 h, 100 µM is 6.03%.

Regarding `O=[N+]([O-])c1ccccc1S(=O)(=O)N1CCN(c2ccnc3cc(Cl)ccc23)CC1`, the hemolysis at 48 h, 100 µM amounted to 0.01%.

Turning to `CCCS(=O)(=O)N1CCN(c2ccnc3cc(Cl)ccc23)CC1`, the hemolysis at 48 h, 100 µM was 0.82%.

For the molecule `CC(=O)Nc1ccc(S(=O)(=O)N2CCN(c3ccnc4cc(Cl)ccc34)CC2)cc1`, the hemolysis at 48 h, 100 µM was 0.83%.

`C=C[C@H]1CN2CC[C@H]1C[C@H]2[C@H](O)c1ccnc2ccc(OC)cc12` [QUININE]: the hemolysis at 48 h, 100 µM is 2.14%.

For the next data set, the system named is Plasmodium falciparum. The data set is described as follows: Antimalarial activity against chloroquine-resistant Plasmodium falciparum FCR-3 assessed as growth inhibition after 24 hrs by [3H]-hypoxanthine incorporation assay. It is filed as functional. The conditions noted are these: FCR-3/Gambia.
With `O=S(=O)(c1ccccc1)N1CCN(c2ccnc3cc(Cl)ccc23)CC1`, the IC50 came to 4.02 µM.

Consider `Cc1ccc(S(=O)(=O)N2CCN(c3ccnc4cc(Cl)ccc34)CC2)cc1`, for which the IC50 came to 4.22 µM.

Take `CS(=O)(=O)N1CCN(c2ccnc3cc(Cl)ccc23)CC1`: the IC50 turned out to be 8.54 µM.

Take `O=S(=O)(c1ccc(Cl)cc1)N1CCN(c2ccnc3cc(Cl)ccc23)CC1`: the half-inhibitory concentration (IC50) is 3.27 µM.

`O=S(=O)(c1cc(Cl)ccc1Cl)N1CCN(c2ccnc3cc(Cl)ccc23)CC1`: the concentration for half-maximal inhibition (IC50) was determined as 2.55 µM.

As to `O=S(=O)(c1ccc2ccccc2c1)N1CCN(c2ccnc3cc(Cl)ccc23)CC1`, the IC50 is 3.06 µM.

Consider `CC(C)(C)c1ccc(S(=O)(=O)N2CCN(c3ccnc4cc(Cl)ccc34)CC2)cc1`, for which the 50% inhibitory concentration (IC50) worked out at 6.09 µM.

Turning to `COc1ccc(S(=O)(=O)N2CCN(c3ccnc4cc(Cl)ccc34)CC2)cc1`, the concentration for half-maximal inhibition (IC50) amounted to 3.3 µM.

Turning to `O=[N+]([O-])c1ccccc1S(=O)(=O)N1CCN(c2ccnc3cc(Cl)ccc23)CC1`, the concentration for half-maximal inhibition (IC50) was found to be 1.94 µM.

For the molecule `CCCS(=O)(=O)N1CCN(c2ccnc3cc(Cl)ccc23)CC1`, the IC50 was 1.72 µM.

Take `CC(=O)Nc1ccc(S(=O)(=O)N2CCN(c3ccnc4cc(Cl)ccc34)CC2)cc1`: the IC50 is 1.16 µM.

For the molecule `C=C[C@H]1CN2CC[C@H]1C[C@H]2[C@H](O)c1ccnc2ccc(OC)cc12` [QUININE], the IC50 was 0.17 µM.

A further data set concerns Entamoeba histolytica. The data set is described as follows: Antiamoebic activity against trophozoite stage of Entamoeba histolytica HM-1:IMSS assessed as growth inhibition after 72 hrs by microdilution method. It is filed as functional, organism-based.
Details: not given
In general terms: Broth dilution looks for growth in wells or tubes with falling amounts of substance.
For `O=S(=O)(c1ccccc1)N1CCN(c2ccnc3cc(Cl)ccc23)CC1`, the IC50 was 32.8 µM.

As to `Cc1ccc(S(=O)(=O)N2CCN(c3ccnc4cc(Cl)ccc34)CC2)cc1`, the half-inhibitory concentration (IC50) was found to be 4.54 µM.

In the case of `CS(=O)(=O)N1CCN(c2ccnc3cc(Cl)ccc23)CC1`, the IC50 was over 100 µM.

On to `O=S(=O)(c1ccc(Cl)cc1)N1CCN(c2ccnc3cc(Cl)ccc23)CC1`, for which the concentration for half-maximal inhibition (IC50) worked out at 25.7 µM.

As for `O=S(=O)(c1cc(Cl)ccc1Cl)N1CCN(c2ccnc3cc(Cl)ccc23)CC1`, the half-inhibitory concentration (IC50) was 30.2 µM.

For the molecule `O=S(=O)(c1ccc2ccccc2c1)N1CCN(c2ccnc3cc(Cl)ccc23)CC1`, the IC50 came to 23.4 µM.

Take `CC(C)(C)c1ccc(S(=O)(=O)N2CCN(c3ccnc4cc(Cl)ccc34)CC2)cc1`: the IC50 was 2.86 µM.

In the case of `COc1ccc(S(=O)(=O)N2CCN(c3ccnc4cc(Cl)ccc34)CC2)cc1`, the half-inhibitory concentration (IC50) turned out to be 8.23 µM.

Consider `O=[N+]([O-])c1ccccc1S(=O)(=O)N1CCN(c2ccnc3cc(Cl)ccc23)CC1`, for which the half-maximal inhibitory concentration (IC50) is over 100 µM.

Turning to `CCCS(=O)(=O)N1CCN(c2ccnc3cc(Cl)ccc23)CC1`, the concentration for half-maximal inhibition (IC50) was over 100 µM.

For `CC(=O)Nc1ccc(S(=O)(=O)N2CCN(c3ccnc4cc(Cl)ccc34)CC2)cc1`, the IC50 worked out at 9.61 µM.

System in a further data set: not listed separately
The data set is described as follows: Safety index, ratio of cytotoxicity against human HT-29 cells to antiamoebic activity against trophozoite stage of Entamoeba histolytica HM-1:IMSS. The conditions noted are these: read-out: Selectivity Index. It is filed as toxicity, cell-based.
In the case of `Cc1ccc(S(=O)(=O)N2CCN(c3ccnc4cc(Cl)ccc34)CC2)cc1`, the selectivity ratio amounted to 14.

Regarding `CC(C)(C)c1ccc(S(=O)(=O)N2CCN(c3ccnc4cc(Cl)ccc34)CC2)cc1`, the selectivity ratio was 24.
